Data on one compound can be found in US20100004171A1, “Therapeutic Methods for Neuropathic Pain” (priority 2006, published 2010).

For data set [1], the system named is tactile allodynia in allodynic rats. Description: Tactile allodynia test (von Frey filaments, paw withdrawal threshold) in CCI (Bennett model) rats. The settings on record: for effect on tactile allodynia: day 7 after injury. Format: in vivo, rat.
Another data set relates to rodents. To be noted: orally to rodents, 3.7 mmol/kg to 36 mmol/kg; cited from earlier work.
In a further data set the test system is agrin protein. Description: Western blot of agrin protein in L3-5 spinal cord. It is filed as in vivo, rat. The procedure: Western blot for detecting protein expression of agrin: Agrin protein was analyzed from L3-5 spinal cord with Western blot as described below at times of 1 day, 3 days, and 7 days post-surgery. The changes in these proteins between sham-operated, nerve-injured (no drug), and nerve-injured (pre-emptive drug) groups were analyzed.
Agrin Protein Extraction: The rats were deeply anesthetized with isoflurane and decapitated. Spinal cord L3-5 was quickly removed and immediately placed into tissue lysis buffer (1 ml, Sigma Co., St. Louis, Mo.) that contained protein enzyme inhibitors (1:100, Halt, Pierce). The tissue was homogenized for 2 min and incubated on ice for 45 min. The sample was then centrifuged at 10,000×g for 30 min at 4° C. The supernatant was transferred to a new tube and centrifuged again for further clarifying. The concentration of the protein was determined by an Agilent's Bio-Rad protein chip (Agilent's 2100 bioanalyzer, Santa Clara, Calif.) and by the […] (reagents from Bio-Rad).
Western blot: Protein (20 μg) from each sample was mixed with 2× electrophoresis buffer and boiled for 5 min. The samples, along with a negative control, were loaded on 4-15% acrylamide tris-glycine SDS gels and electrophoresed in a cell (Bio-Rad) for approximately 1 hr. A Hybond-P polyvinylidene difluoride membrane (Bio-Rad, Hercules, Calif.) was used for transferring the protein in a mini-trans-blot transfer cell (Bio-Rad) for 2 hr. The membrane was then soaked in 2% milk for 1 hour and probed with monoclonal agrin antibody (Agr510 and Agr530, 1:5000, StressGen Biotechnologies Corp., Victoria, Canada) or β-actin antibody (1:5000) at 4° C. overnight with continual shaking. The following day goat anti-mouse secondary antibody conjugated to Alexa Fluor680 (1:5000, Molecular Probe) was added to the membrane and incubated for 1 hr at room temperature. The samples were washed three times with TBS buffer (Tris Buffered Saline, DAKO, Carpinteria, Calif.) between steps. The membrane was then scanned with an Odyssey (LI-COR) scanner and analyzed by Odyssey software (Li-Cor, Lincoln, Nebr.).
In rats with tactile allodynia (a withdrawal threshold with a filament below 8 g), an intrathecal catheter (PE 10) was installed and linked to an osmotic pump (Alzet) in a 37° C. water bath. Following a bolus injection of SCP-1 (30 nmol/kg, 10 μl), agrin siRNA (100 nM) was intrathecally administered continuously by the pump at a rate of 5 μl/1 hour for 4 hr. The animals were subjected to von Frey filament test every 15 min for 4 hr to determine whether the effects of SCP-1 on allodynia suppression are blocked by agrin siRNA. A control siRNA (nFsiRNA) was applied in the same way. The behavioral data was analyzed for agrin effects. […]
(In western blotting, separated proteins are transferred to a membrane and probed.)

Data set [2] concerns Bennett model rats with hyperalgesia and allodynia. The settings on record: intrathecally, 30 nmol/kg; cited from earlier work.
In data set [3] the test system is cultured human hepatocytes. The settings on record: 100 μM; cited from earlier work.
Data set [4] deals with thermal hyperalgesia in allodynic rats. Description: Thermal hyperalgesia test (paw withdrawal latency) in CCI (Bennett) rats. It is filed as in vivo, rat.
Data set [5] can be described thus: Solubility for intrathecal injection. Format: physicochemical. The protocol: The maximum volume injected at any one time was 10 μl.^[79]

Consider `O=C(CN1C(=O)c2ccccc2S1(=O)=O)Nc1ccc(O)cc1` [SCP-1], for which, in data set [1] (Example 9: SCP-1 alone), the “duration of suppressive effect” value is given as “at least 4 hr”. Also, the “effect on tactile allodynia” value is “did not affect tactile allodynia” in data set [1] (intrathecal 1 nmol), “did not affect tactile allodynia” in data set [1] (intrathecal 10 nmol), “only a mild effect” in data set [1] (intrathecal 50 nmol) and “suppressed the tactile allodynia” in data set [1] (intrathecal 200 nmol). Also, in data set [1] (intrathecal 100 nmol), the “withdrawal threshold at 2 hr post-injection” value amounted to 27.3 ± 2.5 g. Further, in data set [1] (intrathecal 100 nmol, basal threshold 4.6±1.1 g), the “withdrawal threshold at 90 min after injection” value amounted to 28 ± 2.4 g. Besides, the “effect on tactile allodynia (paw withdrawal threshold)” value in data set [1] (pre-emptive intrathecal 100 nmol in 10 μl saline immediately prior to CCI, 0, 3, 7 days) is “prevented”. Moreover, in data set [1] (pre-emptive intrathecal 100 nmol prior to CCI), the “duration of prevention of tactile allodynia” value is reported as “up to 7 days”. For the same compound, the “effect on paw withdrawal threshold at 7 days” value in data set [1] (pre-emptive intrathecal 100 nmol prior to CCI, 7 days after injury) is reported as “remained strong”. Moreover, the “toxicity after oral dosing” value in the data set with rodents was “the animals were still moving normally”. Also, the agrin protein level result in the data set on agrin protein (allodynic rats, 2 h post-SCP-1 injection) is “up-regulated to a normal level”. In addition, the agrin protein entry with agrin protein (pre-emptive intrathecal injection prior to CCI, 3 and 7 days) is “did not decrease”. Further, the “effect on allodynia and hyperalgesia” value in data set [2] was “depressed the signs of allodynia and hyperalgesia”. The apoptosis result in data set [3] is “did not induce apoptosis”. Moreover, the “increase in paw-withdrawal latency (thermal hyperalgesia)” value in data set [4] (intrathecal 100 nmol in 10 μl, CCI (Bennett) rat model) is 80%. Further, in data set [4] (intrathecal 100 nmol, 120 min), the “effect on paw-withdrawal latency at 120 min post injection” value was “still apparent”. Moreover, the “solubility in 45% 2-hydroxypropyl-α-cyclodextrin in saline” value in data set [5] (45% cyclodextrin in saline, 10 mM solutions prepared) is given as “can dissolve them”. Moreover, the solubility in water result in data set [5] (water) is recorded as “do not dissolve readily in water”.
